Values after ≈ are worked out from the molar mass of the structure shown. Where a SMILES comes first, the peptide text is derived from it. Bridges are numbered along the chain shown (N, C = ends). Roman numbers before positions name the chains, in order. [ ]: non-standard residue; d: D form. Tle = CC(C)(C)[C@H](N)C(=O)O; dDab = NCC[C@@H](N)C(=O)O; hSer = N[C@@H](CCO)C(=O)O; Dab = NCC[C@H](N)C(=O)O
Legend:
[1] = system: Escherichia coli (clinical isolate); assay type: cell-based
Procedure: (§1) Figure 2 Determination of MBC values for (A) E. coli and (B) P. aeruginosa. Surviving bacterial colonies were detected after incubation with tested peptides for 3 h in MHB.
(§2) Bacterial strains used in this study were clinical isolates of Escherichia coli and Pseudomonas aeruginosa provided by Utrecht University Medical Center, Department of Medical Microbiology, Utrecht, The Netherlands. Both strains were cultured in Mueller Hinton broth (MHB) (Millipore, Sigma-Aldrich).
(§3) Logarithmic growth phase of an o/n bacterial culture was obtained by diluting it 1:100 in MHB and then incubating it for 3 h at 37 °C while shaking. After that, the OD620 of the bacterial suspension was measured and the bacterial solution was diluted to 2 × 10^6 colony forming units/mL (CFU/mL). Bacteria and peptides in MHB were mixed 1:1 (v/v) and incubated for 3 h at 37 °C in a polypropylene round-bottom 96 well-plate (Corning Costar, Glendale, AZ). Subsequently, 10-fold dilutions were made and plated out on Tryptone Soy Agar (TSA) plates and incubated for 24 h at 37 °C to count colonies.

[2] = system: Pseudomonas aeruginosa (clinical isolate); assay type: cell-based; conditions: 3 h
Procedure: as §1, §2, §3

[3] = system: E. coli O111:B4 LPS stimulated RAW264.7 macrophages; test: Nitric oxide inhibition assay (Griess), E. coli O111:B4 LPS; assay type: cell-based; conditions: 0–5 μM peptide
Procedure: (§4) Figure 3 Nitric oxide inhibition in LPS stimulated RAW264.7 by peptide antibiotics. RAW264.7 cells were stimulated with smooth type LPSs (A) E. coli O111:B4 LPS and (B) P. aeruginosa LPS and rough type LPS (C) E. coli K-12 LPS in the presence of different concentrations of peptides: CPA, murepavadin, MHM, PMB, and PMBN. NO production was measured by Griess assay. Shown are the mean ± SEM of three independent experiments. (D) Schematic diagram of the general structure of lipopolysaccharides. It consists of three main subunits: lipid A, the core region, and the O-antigen. Lipid A and the core-region form rough (R)-type LPS. Lipid A, the core-region, and the O-antigen together form smooth (S)-type LPS.
(§5) RAW264.7 cells were seeded (5 × 10^4 cells/well) in a 96-well plate and left at 37 °C for overnight adherence. Then, cells were stimulated with […] types of LPS: 20 ng/mL LPS originating from E. coli O111:B4 (LPS-EB, InvivoGen), 50 ng/mL LPS from P. aeruginosa (PA-10 LPS, Sigma -Aldrich), and 5 ng/mL LPS from E. coli K-12 (LPS-EK, InvivoGen) in the presence of 0–5 μM peptides in DMEM for 24 h. After incubation, the nitrite content (corresponding to nitric oxide produced but quickly oxidized in watery solutions to nitrite) in the supernatant was measured using the Griess assay.[28]

[4] = system: P. aeruginosa 10 LPS stimulated RAW264.7 macrophages; test: Nitric oxide inhibition assay (Griess), P. aeruginosa 10 LPS; assay type: cell-based; conditions: 0–5 μM peptide
Procedure: as §4, §5

[5] = system: E. coli K-12 LPS stimulated RAW264.7 macrophages; test: Nitric oxide inhibition assay (Griess), E. coli K-12 LPS; assay type: cell-based; conditions: 0–5 μM peptide
Procedure: as §4, §5

[6] = system: E. coli O111:B4 LPS stimulated RAW264.7 macrophages; test: TNF-α release ELISA in LPS stimulated macrophages; assay type: cell-based; conditions: 20 ng/mL E. coli O111:B4 LPS, 24 h
Procedure: (§6) Figure 4 Peptides modulation of cytokine expression in RAW264.7 cells stimulated with LPS. RAW macrophages were stimulated with 20 ng/mL E. coli LPS in the presence of different concentrations of peptide antibiotics. (A) TNF-α and (B) IL-10 release was measured by ELISA in duplicates. Shown are the mean ± SEM of three independent experiments.
as §5
(§7) A sandwich ELISA was used to measure TNF-α and IL-10 concentrations in the supernatant of the same treatment (24 h) used for nitrite measurement, using ELISA Duoset kits (R&D systems, Minneapolis, MN) according to the manufacturer’s protocol.

[7] = system: E. coli O111:B4 LPS stimulated RAW264.7 macrophages; test: IL-10 release ELISA in LPS stimulated macrophages; assay type: cell-based; conditions: 20 ng/mL E. coli O111:B4 LPS, 24 h
Procedure: as §6, §5, §7

[8] = system: E. coli O111:B4 LPS; test: Isothermal titration calorimetry (ITC) of LPS binding; conditions: 30 μM peptide, 200 μM LPS in 50% PBS, 37 °C, representative of two measurements
Procedure: Figure 6 (A) Binding profile of LPS and the peptides using ITC. Binding signatures (ΔG, ΔH. and −TΔS) plotted for binding events of LPS with peptides. (B) Spectra of the interaction between LPS and peptides. Murepavadin, PMB, MHM, PMBN, and CPA (30 μM) were titrated against 200 μM E. coli O111:B4 LPS, and heat rates were recorded. Shown is a representative of two measurements.
ITC measurements were performed in a low volume NanoITC (TA Instruments-Waters LLC, New Castle, DE). Two hundred micromolar LPS (from E. coli O111:B4) was prepared in 50% PBS. Peptides of 30 μM concentration were prepared in identical buffer. Three hundred microliters of the peptide solution was added to the chamber (chamber volume is 169 μL, so the rest of the volume flows out and rests around the chamber), and 50 μL of LPS was added to the syringe. At 37 °C, 2 μL of LPS solution was injected into the chamber every 300 s, except the first injection, which consists of 0.96 μL. The experiments were performed at 37 °C while stirring at 300 rpm. The data was analyzed with the NanoAnalyze Software (TA Instruments, Asse, Belgium).

[9] = system: RAW264.7 macrophages stimulated with treated P. aeruginosa; test: Silent killing: stimulation of macrophages with nonviable bacteria (TNF-α ELISA); assay type: cell-based; conditions: bacteria 1 × 10^6 CFU/mL treated with 20 μM peptide 1 h at 37 °C, RAW264.7 2 h, three independent experiments
Procedure: Figure 7 (A) Determination of macrophage activation in response to viable and nonviable bacteria. P. aeruginosa was treated with gentamicin, heat treatment, CATH-2 (control), CPA, murepavadin, MHM, PMB, or PMBN (20 μM of each) and subsequently added to RAW264.7 macrophages. Production of TNF-α was measured using ELISA after 2 h of treatment. (B) Viability of P. aeruginosa after treatment was checked by plating on TSA plates. Data is plotted as the mean ± SEM of three independent experiments. Significant differences were determined by ordinary one-way ANOVA (Tukey’s multiple comparison test).
RAW264.7 cells were seeded (7.5 × 10^4 cells/well) as described above. P. aeruginosa (diluted to 1 × 10^6 CFU/mL in DMEM) was treated separately with heat (1 h at 90 °C), 1 mg/mL gentamicin (1 h at 37 °C), 20 μM CPA (1 h at 37 °C), 20 μM PMB (1 h at 37 °C), 20 μM murepavadin (1 h at 37 °C), 20 μM MHM (1 h at 37 °C), 20 μM CATH-2 (1 h at 37 °C), and DMEM only (untreated sample) (1 h at 4 °C). After treatment, the bacteria were added to the RAW264.7 cells for 2 h of incubation at 37 °C. After that, TNF-α production was determined in the supernatant by ELISA.

Compound: CC(C)C[C@@H]1NC(=O)[C@@H](Cc2ccccc2)NC(=O)[C@H](CCN)NC(=O)[C@@H](NC(=O)[C@H](CCN)NC(=O)[C@@H](NC(=O)[C@H](CCN)NC(=O)CC[C@@H]2NC(=O)[C@H](CCN)NC(=O)[C@H](Cc3ccc(O)cc3)NC(=O)[C@H]([C@@H](C)O)NC(=O)[C@H](C(C)C)NC(=O)[C@@H]3CCCN3C(=O)[C@@H](C)NC(=O)[C@H](CO)NC(=O)[C@H](C)NC(=O)[C@H](C(C)(C)C)NC(=O)[C@H](CCO)NC(=O)[C@H](Cc3c[nH]c4ccccc34)NC(=O)[C@H](CCO)NC(=O)[C@@H](CCN)NC2=O)[C@@H](C)O)CCNC(=O)[C@H]([C@@H](C)O)NC(=O)[C@H](CCN)NC(=O)[C@H](CCN)NC1=O [CPA] (I: cyclo([dDab][hSer]W[hSer][Tle]AS[dA]PVTY[Dab]E) / II: [Dab]T[Dab][Dab][Dab][dF]L[Dab][Dab]T; amide I:14-II:N (inferred); lactam II:4-II:C (inferred); ring closure inferred)
- decrease in viable E. coli ([1]; at 1.25 μM peptide, from starting density of 10^6 CFU/mL, 3 h in MHB): 2 log
- MBC (complete killing) against E. coli ([1]; clinical isolate, 3 h): 10 µM (≈ 25.7 µg/mL)
- MBC (complete killing) against P. aeruginosa [2]: 2.5 µM (≈ 6.41 µg/mL)
- concentration that completely neutralized E. coli O111:B4 LPS (nitric oxide production) ([3]; 20 ng/mL LPS, 24 h in DMEM, Griess assay): 20 nM
- inhibition of LPS-induced nitric oxide production (in words) ([3]; smooth E. coli O111:B4 LPS 20 ng/mL, 24 h): dose-dependently active
- concentration that almost completely neutralized P. aeruginosa 10 LPS (nitric oxide production) ([4]; 50 ng/mL LPS, 24 h in DMEM, Griess assay): 20 nM
- inhibition of LPS-induced nitric oxide production (in words) ([4]; smooth P. aeruginosa 10 LPS 50 ng/mL, 24 h): dose-dependently active
- concentration that neutralized E. coli K-12 LPS (nitric oxide production) ([5]; 5 ng/mL rough LPS, 24 h in DMEM, Griess assay): 5 µM
- inhibition of LPS-induced nitric oxide production (in words) ([5]; rough E. coli K-12 LPS 5 ng/mL, 24 h): dose-dependently active
- inhibition of TNF-α release (in words) [6]: sharply decreased the TNF-α and IL-10 release by RAW264.7 macrophages at a concentration of 5 nM
- inhibition of IL-10 release (in words) [7]: sharply decreased the TNF-α and IL-10 release by RAW264.7 macrophages at a concentration of 5 nM
- Kd [8]: 7.8 µM
- macrophage activation (TNF-α) by peptide-treated P. aeruginosa compared to viable untreated bacteria [9]: significantly reduced immune response

Source: PMC10012172, “Chimeric Peptidomimetic Antibiotic Efficiently Neutralizes Lipopolysaccharides (LPS) and Bacteria-Induced Activation of RAW Macrophages” (ACS Infectious Diseases, 2023)
